Experimental data published in US10328075B2, “Method of treatment and compounds for use therein” (Baker Heart and Diabetes Institute, priority 2015, dated 2019).

Tests used:
hFPR1 [1] = molecular target: T1, hFPR1 (Homo sapiens, UniProt P21462); experiment: [Ca2+]i mobilization in FlpIn-CHO cells stably expressing hFPR1; assay type: cell-based; set-up: Calcium Rmax: unit not given here; settings: Table 10, receptor not given, ND = Not detectable; for EC50: read-out: Calcium pEC50 (converted)
T1 construct: expressed in transfected cells
T1 sequence (P21462 1-350): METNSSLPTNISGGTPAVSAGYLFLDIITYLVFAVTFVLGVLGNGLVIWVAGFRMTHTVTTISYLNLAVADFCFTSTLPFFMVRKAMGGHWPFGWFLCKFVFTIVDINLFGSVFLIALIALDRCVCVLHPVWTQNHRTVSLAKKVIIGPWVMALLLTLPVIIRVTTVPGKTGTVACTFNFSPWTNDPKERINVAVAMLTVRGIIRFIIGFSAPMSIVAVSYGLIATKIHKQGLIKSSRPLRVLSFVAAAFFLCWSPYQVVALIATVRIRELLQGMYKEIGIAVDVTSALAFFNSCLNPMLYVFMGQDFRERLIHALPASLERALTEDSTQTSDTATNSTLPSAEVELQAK
Excerpt: (§1) cDNDA construct and generation of stable cell lines: cDNA in pcDNA3.1^+ encoding the human formyl peptide receptors (FPR) subtypes, hFPR1, hFPR2 and hFPR3 was obtained from Invitrogen. The sequences for 3 hFPR receptors were amplified by PCR and cloned into the Gateway entry vector, pDONR202™, using the BP clonase enzyme mix, according to the manufactures' instructions (Invitrogen Inc, Carlsbad, Calif., USA). All hFPR receptors constructs in pDONR201™ were subsequently transfected into the pEF5/FRT/V5/dest vector using the LR clonase enzyme mix (Invitrogen). Receptor constructs (pEF5/FRT/V5/dest) were used to transfect FIp-In CHO cells as described previously (Valant C et al., PNAS, 2014). Cells were selected using 500 μg/mL hydromycin to generate cell lines stably expressing each receptor construct. Cells were maintained and cultured in high glucose DMEM supplemented with 10% FBS, 16 mM HEPES and 500 μg/mL hydromycin at 37° C. under a humidified atmosphere containing 5% CO2.
(§2) In the various assays described below, cells were plated into 96-well transparent cell culture plates at 4×10^4 cells per well, cultured overnight in serum-free media at 37° C. in 5% CO2.
Intracellular calcium mobilization: Intracellular calcium mobilization was assayed as described previously (Keov, P et al., 2014). Briefly, cells were washed once using HEPES buffered saline (HBS) solution [150 mM NaCl, 2.2 mM CaCl2, 2.6 mM KCl, 1.2 mM MgCl2, 10 mM HEPEs, 10 mM D-Glucose, 0.5% (w/v) bovine serum albumin (BSA) and 4 mM probenecid] at pH 7.4, then treated with Fluo-4-AM (1 μM, in HBS/BSA/probenecid) for 60 min at 37° C. in 5% CO2 in the dark. Cells were then further washed and placed in HBS/BSA/probenecid solution for ligation addition and assay using the FLEXstation 3 plate reader (Molecular Devices, Sunnyvale, Calif.). For all experiments, peak change in fluorescence signal was normalized to the cellular response to 100 μM ATP, which was used as an internal positive control.
(§3) Data analysis: All data were analysed using GraphPad Prism 6.0 (GraphPad Software, San Deigo, Calif., USA). Where appropriate, concentration-response curves were fitted to derive the maximal agonist effect (Emax), and the ligand potency estimate (pEC50), where Emax is the maximal possible response of the system (not the agonist), basal is the basal level of response in the absence of agonist, and pEC50 is the negative logarithm of the agonist concentration that gives a response halfway between Emax and basal.
In the present study, FIp-IN CHO cells and Gateway plasmid were obtained from Invitrogen Inc (Carlsbad, Calif., USA). The sequences for all 3 known human FPRs (hFPR1, hFPR2 and hFPR3) were amplified by PCR and cloned into the Gateway entry vector, pDONR202TM, using the BP clonase enzyme mix, according to the manufacturers' instructions. The hFPR pDONR201TM constructs were subsequently transfected into the pEF5/FRT/V5/dest vector using the LR clonase enzyme mix (Invitrogen). Receptor constructs (pEF5/FRT/V5/dest) were used to transfect FIp-IN CHO cells, as described previously (Valant et al. 2014). Cells were selected using 500 μg/mL hydromycin to generate cell lines stably expressing each human receptor construct. Cells were maintained and cultured in high glucose Dulbecco's modified eagle medium (DMEM) supplemented with 10% fetal bovine serum (FBS, from JRH Biosciences, Lenexa, Kans., USA) and 500 μg/mL hydromycin B (Invitrogen Inc) at 37° C. under a humidified atmosphere containing 5% CO2. Cell were plated into 96-well transparent cell culture plates at 4×10^4 cells per well, cultured overnight in serum-free media at 37° C. in 5% CO2.
(ii) Intracellular Ca2+ mobilization: Intracellular Ca2+ mobilization was determined in stably-transfected recombinant hFPR CHO cells, as described previously (Valant et al. 2014).

hFPR1 [2] = molecular target: T1, hFPR1; experiment: ERK1/2 phosphorylation (AlphaScreen SureFire) in hFPR1-FlpIn-CHO cells; assay type: cell-based; settings: Table 10, receptor not given; for ERK pEC50 / EC50: values of 10394/10396 equal the hFPR1 values of Table 9; for EC50: read-out: ERK pEC50 (converted)
Excerpt: as §1, §2
Measurement of extracellular signal regulated kinase 1 and 2 phosphorylation (pERK1/2): Initial ERK1/2 phosphorylation at Thr202/Tyr204 time-course experiments were performed to determine the time at which ERK1/2 phosphorylation was maximal after stimulation by each agonist. Cells were seeded onto transparent 96-well cell culture plates at 4×10^4 cells per well. After 6 h, cells were washed once with PBS, and then incubated in serum-free DMEM overnight, to allow FBS-stimulated phosphorylated ERK1/2 levels to subside. […] 10% (v/v) FBS was used as a positive control, with vehicle controls also included. The reaction was terminated by removal of study drugs and lysis of cells with 100 μL of SureFire lysis buffer (TGR Biosciences). Cell were lysed in SureFire lysis buffer and transferred to 384-well opaque proxiplates. Under low-light conditions, a 1:120 (v:v) dilution of AlphaScreen beads (both acceptor and donor):Surefire reaction buffer was prepared, which was mixed with the activation buffer in a ratio of 6:1 (v:v), respectively. Plates were incubated in the dark at 37° C. for 1 h before the fluorescence signal was measured by a Fusion-α plate reader (PerkinElmer Life and Analytical Sciences, Foster city, CA, USA) with standard AlphaScreen settings. Data were normalized to the maximal response elicited by 10% (v/v) FBS at the same time point.
Receptor mediated pERK1/2 levels were determined using the AlphaScreen™ ERK1/2 SureFire™ kit, as described previously (Keov, P et al., 2014). For all experiments, 10% FBS was used as internal positive control to stimulate pERK1/2, and which the maximum responses were used for normalization of data, whilst vehicle was used as negative control.
as §3
In the present study, FIp-IN CHO cells and Gateway plasmid were obtained from Invitrogen Inc (Carlsbad, Calif., USA). The sequences for all 3 known human FPRs (hFPR1, hFPR2 and hFPR3) were amplified by PCR and cloned into the Gateway entry vector, pDONR202TM, using the BP clonase enzyme mix, according to the manufacturers' instructions. The hFPR pDONR201TM constructs were subsequently transfected into the pEF5/FRT/V5/dest vector using the LR clonase enzyme mix (Invitrogen).

Row | SMILES | Calcium Rmax (hFPR1 [1]) | ERK Rmax (hFPR1 [2]) | ERK pEC50 (hFPR1 [2]) | EC50 (hFPR1 [2]) [µM] | EC50 (hFPR1 [1]) [µM]
1 | COc1cccc(Cc2cc(C)nn(C(C)C(=O)Nc3ccc(Cl)cc3)c2=O)c1 (stereo not shown) [MIPS008744] | 20 ± 5 | 95 ± 5 | 5.47 ± 0.12 |  | 
2 | COc1cccc(Cc2cc(C)nn(C(C)C(=O)Nc3cccc(F)c3)c2=O)c1 (stereo not shown) [MIPS-0008745] |  | 50 ± 4 | 5.12 ± 0.38 |  | 
3 | COc1cccc(Cc2cc(C)nn(C(C)C(=O)Nc3ccc(F)cc3)c2=O)c1 (stereo not shown) [MIPS-0008749] |  | 57 ± 2 | 5.07 ± 0.18 |  | 
4 | COc1cccc(Cc2cc(C)nn(C(C)C(=O)Nc3ccc4c(c3)OCO4)c2=O)c1 (stereo not shown) [MIPS-0008750] | 26 ± 6 | 74 ± 7 |  | 5.75 | 
5 | COc1ccc(Cc2cc(C)nn(C(C)C(=O)Nc3ccc(Br)cc3)c2=O)cc1 (stereo not shown) [MIPS-0008853] | 26 ± 6 | 81 ± 6 | 5.58 ± 0.14 |  | 
6 | COc1ccccc1Cc1cc(C)nn(C(C)C(=O)Nc2ccc(Br)cc2)c1=O (stereo not shown) [MIPS-0008854] | 26 ± 9 | 76 ± 3 | 6.07 ± 0.11 |  | 
7 | COc1cccc(Cc2cc(C)nn(C(C)C(=O)Nc3ccc4c(c3)OCO4)c2=O)c1 (stereo not shown) [MIPS-0008856] | 19 ± 3 | 64 ± 4 |  | 12.6 | 
8 | Cc1cc(Cc2ccc(F)cc2)c(=O)n(C(C)C(=O)Nc2ccc(Br)cc2)n1 (stereo not shown) [MIPS-0008857] | 5 ± 1 | 89 ± 1 | 5.74 ± 0.13 |  | 
9 | Cc1cc(Cc2ccccc2F)c(=O)n(C(C)C(=O)Nc2ccc(Br)cc2)n1 (stereo not shown) [MIPS-0008858] | 8 ± 2 | 91 ± 8 | 5.75 ± 0.12 |  | 
10 | Cc1cc(Cc2cccc(F)c2)c(=O)n(C(C)C(=O)Nc2ccc(Br)cc2)n1 (stereo not shown) [MIPS-0008859] | 18 ± 3 | 93 ± 7 | 5.68 ± 16 |  | 
11 | COc1ccc(OC)c(Cc2cc(C)nn(CC(=O)Nc3ccc(Cl)cc3)c2=O)c1 [MIPS-0010384] | 19 ± 2 | 77 ± 3 | 5.00 ± 0.37 |  | 6.03
12 | COc1ccccc1Cc1cc(C)nn(CC(=O)Nc2ccc(Cl)cc2)c1=O [MIPS-0010392] | 17 ± 3 | 81 ± 2 | 5.91 ± 0.13 |  | 18.2
13 | Cc1cc(Cc2ccccn2)c(=O)n(CC(=O)Nc2ccc(Cl)cc2)n1 [MIPS-0010397] | 18 ± 8 | 74 ± 3 |  | 1.02 | 
14 | CCc1ccc(NC(=O)Cn2nc(C)cc(Cc3ccccc3OC)c2=O)cc1 [MIPS-0014051] |  | 79 ± 9 | 5.30 ± 0.12 |  | 
15 | COc1ccc(NC(=O)Cn2nc(C)cc(Cc3ccccc3OC)c2=O)cc1 [MIPS-0014052] | 13 ± 3 | 64 ± 6 | 5.10 ± 0.23 |  | 
16 | Cc1cc(Cc2cccc3c2OCCO3)c(=O)n(CC(=O)Nc2ccc(Cl)cc2)n1 [MIPS-0014053] |  | 78 ± 13 |  | 1.91 | 
17 | COc1cccc(Cc2cc(C)nn(CC(=O)Nc3ccc(Cl)cc3)c2=O)n1 [MIPS-0014055] | 11 ± 2 | 94 ± 11 |  | 1.78 | 
18 | Cc1cc(Cc2ccccn2)c(=O)n(CC(=O)Nc2ccc(Cl)cc2)n1 [MIPS-0014057] | 45 ± 10 | 91 ± 4 |  | 0.603 | 4.57
19 | COc1ccccc1Cc1cc(C)nn(CC(=O)Nc2ccc(C)cc2)c1=O [MIPS-0014058] | 32 ± 1 | 87 ± 1 |  | 1.15 | 5.01
20 | COc1ccc(NC(=O)Cn2nc(C)cc(Cc3c(OC)cccc3OC)c2=O)cc1 [MIPS-0014071] | 48 ± 7 | 78 ± 2 |  | 2.63 | 2.82
